Measured values reported in patent US20250367302A1, “SMALL MOLECULE DRUG-OLIGONUCLEOTIDE CONJUGATE AND USE THEREOF” (SHANGHAI JIAO TONG UNIVERSITY, priority 2022, published 2025).

What was measured:
[1] = system: psoriasis-like model mice (5% imiquimod cream); test: Imiquimod psoriasis-like mouse model, smear administration in carbomer gel; type: in vivo; conditions: nanomicelles in carbomer gel applied to skin lesions, after 7 d of treatment
Description: (§1) The psoriasis model on the back and ears of 6-8 weeks old mice (C57BL/6, Suzhou Xishan Biotechnology Co., Ltd.) was established with 5% imiquimod cream. After removing the hair on the back of the mice, 60 mg of 5% imiquimod cream was applied to the back and ears of each mouse for 6 consecutive days. […] CsA3-ASONFKBIZ-m nanomicelles were mixed with carbomer gel and applied to the skin lesions for treatment. The carbomer gel without CsA3-ASONFKBIZ-m nanomicelles was used as a control group (control) for efficacy testing. On the 7 d of treatment, the thickness of the skin at the back lesions and the thickness of the ears were measured, and the erythema, scaling, skin thickening, and severity of the psoriasis lesions were scored. The results were shown in FIG. 54, FIGS. 55A-55B, and FIGS. 56A-56D.
as §1, with “mice” for “mice (C57BL/6, Suzhou Xishan Biotechnology Co., Ltd.)”, “10TA-ASONFKBIZ-m” for “CsA3-ASONFKBIZ-m”, “The carbomer gel without CsA3-ASONFKBIZ-m nanomicelles was used as a control group (control) for efficacy testing.” left out, “The results were shown in FIG. 54, FIGS. 55A-55B, and FIGS. 56A-56D.” left out

[2] = system: mice with xerophthalmia (0.2% benzalkonium chloride); test: Benzalkonium chloride xerophthalmia mouse model: sodium fluorescein staining and phenol red cotton thread tear test; type: in vivo, mouse (C57BL/6)
Description: The ocular xerophthalmia model was established in 6-8 weeks old mice (C57BL/6, Suzhou Xishan Biotechnology Co., Ltd.) with 0.2% benzalkonium chloride. 5 μL of 0.2% benzalkonium chloride was dripped into each eye of the mice, once in the morning and once in the evening every day, for two consecutive weeks. After successful modeling, the hospital-prepared CsA eye drops (400 µM CsA, referred to as hospital-prepared CsA eye drops or CsA eye drops, provided by the Eye, Ear, Nose and Throat Hospital Affiliated to Fudan University School of Medicine, Shanghai) and CsA-ASONFKBIZ-m (400 µM CsA) were used for eye drops treatment, 5 μL per eye, once in the morning and once in the evening. Sodium fluorescein staining and phenol red cotton thread tear secretion test were conducted on days 0, 7, and 14 of treatment to evaluate the therapeutic effect.
(§2) The ocular xerophthalmia model was established in 6-8 weeks old mice (C57BL/6, Suzhou Xishan Biotechnology Co., Ltd.) with 0.2% benzalkonium chloride. 5 μL of 0.2% benzalkonium chloride was dripped into each eye of the mice, once in the morning and once in the evening every day, for two consecutive weeks. After successful modeling, the hospital-prepared CsA eye drops (400 μM CsA, provided by the Eye, Ear, Nose and Throat Hospital Affiliated to Fudan University School of Medicine, Shanghai) and 2CsA-ASONFKBIZ-m (400 µM CsA) were used for eye drops treatment, 5 μL per eye, once in the morning and once in the evening. Sodium fluorescein staining and phenol red cotton thread tear secretion test were conducted on days 0, 7, and 14 of treatment to evaluate the therapeutic effect.
as §2, with “µM” for “μM”, “provided” for “provided by”, “3CsA-ASONFKBIZ-m nanomicelles (133 µM ASO concentration, 400” for “2CsA-ASONFKBIZ-m (400”
as §2, with “CsA3-ASONFKBIZ-m nanomicelles” for “2CsA-ASONFKBIZ-m”, “0” for “0, 7,”
The ocular xerophthalmia model was established in 6-8 weeks old mice (C57BL/6, Suzhou Xishan Biotechnology Co., Ltd.) using 0.2% benzalkonium chloride. 5 μL of 0.2% benzalkonium chloride was dripped into each eye of the mouse, once in the morning and once in the evening every day for two weeks. After successful modeling, the hospital-prepared CsA eye drops (400 µM CsA, provided by the Eye, Ear, Nose and Throat Hospital Affiliated to Fudan University School of Medicine, Shanghai) and CsA-siRNANFKBIZ-m (400 µM CsA), 2CsA-siRNANFKBIZ-m nanomicelles (400 µM CsA), 3CsA-siRNANFKBIZ-m nanomicelles (400 µM CsA) were used for eye drops treatment, 5 μL per eye, once in the morning and once in the evening. […]

[3] = eye drops 5 μL per eye twice daily, 400 μM CsA (10RAP: 400 μM rapamycin), day 14
[4] = xerophthalmia mice, baseline of the treatment group

Substance: CsA3-ASONFKBIZ-m: CsA trimer on tripropargyl linker at 3′ end of ASO targeting mouse NFKBIZ (SEQ ID NO: 8) (AATACTGGTACATTGACGCC; 3'-NHS ASO with tripropargyl linker carrying three cyclosporin A, chemistry not given here, further chemistry not given here)
- erythema and scaling of the skin lesions versus control group [1]: significantly reduced
- skin thickness of the lesions (and ears) versus control group [1]: reduced
- phenol red cotton thread infiltration length (tear secretion) after 14 d of treatment [2, 3]: about 3.5 mm
- sodium fluorescein staining eye score after 14 d of treatment [2, 3]: about 6 points
- phenol red cotton thread infiltration length (tear secretion), day 0 (before treatment) [2, 4]: 1.5 mm
- sodium fluorescein staining eye score, day 0 (before treatment) [2, 4]: 10 points
